According to patent publication US12527773B2, “Flavi-block: a pan-flavivirus inhibitor” (Baden-Württemberg Stiftung GmbH, priority 2020, dated 2026):
Several values for one entry are separate records, joined by “and”; a condition that tells them apart may be missing. Identical values can stand only once. Entries after “also recorded” stand apart in the source; their conditions may differ. Like-named read-outs stand apart in the source and are kept apart here.

How the values were obtained:
DENV, ZIKV and KUNV = experiment: Inhibition of flavivirus infection, summary bounds over DENV, ZIKV and KUNV; format: cell-based
Protocol: Vero cells were seeded into 24-well plates at a density of 2×10^5 cells/well and grown overnight in culture medium at 37° C. with 5% CO2 prior to infection with RSV, KUNV, ZIKV as indicated. BHK-21 cells were used for DENV1-4. The virus inoculum was removed and replaced with semisolid overlays of 0.8% aquacide II (Calbiochem) in DMEM+2% FBS, and the mixture was incubated at 37° C. with 5% CO2. After 3-5 days, the cells were fixed with neutral buffered formalin (Sigma) for 3 h at room temperature, rinsed with tap water, and stained with 1% crystal violet for 10 min. The stain was removed by rinsing the cells with tap water, and the viral plaques were counted visually. Dose-response curves were plotted from the plaque number versus the log of the concentration of the test compounds.
Viral RNA was extracted using Isolate II RNA extraction kit (Bioline), and the absolute number of RNA copies determined by Taqman One Step RT-qPCR (Applied Biosystems) by extrapolation from a standard curve generated from in vitro—transcribed virus RNA.
It was decided to test the ability of C10 to inhibit the flaviviruses DENV1-4, KUNV and ZIKV, in addition to the paramyxovirus RSV, as a control.

[1] = Metabolic stability in mouse liver microsomes; conditions: for % Remain. Mean of 2: with NADPH; for % Remain. without cofactor, Mean of 2: without NADPH cofactor
Protocol: Microsomal incubations were carried out in 96-well plates in 5 aliquots of […] each (one for each time point). […] Control incubations were performed replacing the NADPH-cofactor system with PBS. […] Incubations were performed in duplicates. Five time points over 40 minutes had been analyzed. The reactions were stopped by adding 12 volumes of 90% acetonitrile-water to incubation aliquots, followed by protein sedimentation by centrifuging at 5500 rpm for 3 minutes. […]. Supernatants were analyzed using the HPLC system coupled with tandem mass spectrometer.
The elimination constant (kel), half-life (t½) and intrinsic clearance (Clint) were determined in plot of In(AUC) versus time, using linear regression analysis (In order to indicate the quality of the linear regression analysis, the R (correlation coefficient) values are provided. In some cases, the last time point is excluded from the calculations to ensure acceptable logarithmic linearity of decay): […]

HBV = experiment: IC50 in established virological assays (Table 1), HBV; format: cell-based, Hepatits B Virus
Protocol: In summary, a set of C10 derivatives (FIG. 12) was designed, synthesized and tested against HCV (which is considered as an established system to monitor drug effects against Flaviviridae) as well as DENV for comprehensive structure-activity relationship (SAR) analysis and target validation. IC50 and CC50 values for compound C10 were determined in established virological assays (Table 1). […] Further, said experiments underline the specificity of compound C10 for flaviviruses.

[2] = Pharmacokinetic study in Balb/c mice, intravenous administration; format: in vivo; set-up: Kel (Lambda_z): unit not given here; conditions: for Plasma concentration, Group A-D: single animals; for half-life: iv
Protocol: Study design, animal selection, handling and treatment were all in accordance with the study protocols and institutional animal care and use guidelines. Male Balb/c mice (9-10 weeks old, body weight 22.3 to 38.1 g and average body weight across all groups 31.4 g, SD=3.20 g) were used in this study. The animals were randomly assigned to the treatment groups before the pharmacokinetic study; all animals were fasted for 4 h before dosing. Six time points for PO (15, 30, 60, 120, 240 and 360 min) and IV (5, 15, 30, 60, 120 and 240 min) routes were used in this pharmacokinetic study. Each of the PO and IV time point treatment groups included 4 animals. There was also control group of 2 animals. Dosing was done according to the treatment schedules outlined in Table 3. Mice were injected IV with 2,2,2-tribromoethanol at the dose of 150 mg/kg prior to taking blood. Blood collection was performed from the orbital sinus in microtainers containing K2EDTA. Animals were sacrificed by cervical dislocation after blood samples collection. All samples were immediately prepared, flash-frozen and stored at −70° C. until subsequent bioanalysis.
Samples Processing Plasma samples ([…]) were mixed with […] of IS solution. After mixing by pipetting and centrifuging for 4 min at 6,000 rpm, […] of each supernatant was injected into LC-MS/MS system. Solution of compound IS-02-03 (200 ng/ml in acetonitrile-methanol mixture, 1:1, v/v) was used as internal standard (IS) for quantification of C10 in plasma samples. Samples Analysis The concentrations of C10 were determined using high performance liquid chromatography/tandem mass spectrometry (HPLC-MS/MS). Shimadzu H PLC system comprised of 2 isocratic pumps LC-10Advp, an autosampler SIL-HTc, a sub-controller FCV-14AH and a degasser DGU-14A. Mass spectrometric analysis was performed using an API 3000 (triple-quadrupole) instrument from AB Sciex (Canada) with an electro-spray (ESI) interface. The data acquisition and system control was performed using Analyst 1.5.2 software from AB Sciex. HPLC-MS/MS Conditions
The pharmacokinetic data analysis was performed using non-compartmental, bolus injection or extravascular input analysis models in WinNonlin 5.2 (PharSight). Data below LLOQ were presented as missing to improve validity of T1/2 calculations. No outlier data points were removed from calculations. The bioavailability for the peroral route was calculated as: […]

[3] = male, Balb/c, mouse, plasma, IV 5 mg/kg

For `CCN1/C(=C\C=C\c2sc3cc(NC(C)=O)ccc3[n+]2CC)Sc2cc(NC(C)=O)ccc21.[I-]` [C10, 6-acetamido-2-((1E,3E)-3-(6-acetamido-3-ethylbenzo[d]thiazol-2(3H)-ylidene)prop-1-en-1-yl)-3-ethylbenzo[d]thiazol-3-ium iodide], the EC50 (DENV, ZIKV and KUNV; c.t., DENV, ZIKV and KUNV infection, read-out: EC50) was < 0.5 µM, the EC50 (DENV, ZIKV and KUNV; c.t., read-out: EC50, infectious virus (plaque-forming units)) was < 0.1 µM and the EC50 (DENV, ZIKV and KUNV; c.t., read-out: EC50, virus genomes by RT-qPCR) was < 0.5 µM. For the same compound, the EC50 (DENV, ZIKV and KUNV; p.i., DENV, ZIKV and KUNV infection, read-out: EC50) was < 2 µM, the EC50 (DENV, ZIKV and KUNV; p.i., read-out: EC50, virus genomes by RT-qPCR) was < 1.7 µM and the EC50 (DENV, ZIKV and KUNV; read-out: EC50, infectious virus (plaque-forming units), p.i.) was < 1.5 µM. The EC50 (DENV, ZIKV and KUNV; read-out: EC50s for co-addition, all serotypes of DENV, ZIKV and WNV, plaque assays or qPCR) was 0.01 to 0.1 µM, the half-life at 2 mM ([1]; male, Balb/c, mouse, microsomes, pH 7.4) was 5.79 h and the CIint ([1]; mouse liver microsomes) was 5 µL/min/mg. For the same compound, the Kel ([1]; mouse liver microsomes) was 0.002 min⁻¹, the “stability in mouse hepatic microsomal test system” value ([1]; mouse, microsomes) was “good stability” and the “% Remain. Mean of 2” value ([1]; 0.42 mg protein per ml, 0 min) was 100%. The “% Remain. Mean of 2” value ([1]; 10 min) was 100%, the “% Remain. Mean of 2” value ([1]; 20 min) was 96% and the “% Remain. Mean of 2” value ([1]; 30 min) was 95%. The “% Remain. Mean of 2” value ([1]; 40 min) was 88%, the “% Remain. without cofactor, Mean of 2” value ([1]; 0 min) was 100% and the “% Remain. without cofactor, Mean of 2” value ([1]; 40 min) was 86%. For the same compound, the “activity against Hepatits B Virus (HBV)” value (HBV) was “inactive or has only minor activity”, the IC50 (HBV; Hepatitis B virus, HBV) was > 10 µM and the “Kel (Lambda_z)” value ([2]; IV 5 mg/kg) was 0.00581. The “Vd (Vz_obs)” value ([2]; IV 5 mg/kg) was 14.1 L/kg, the “Plasma concentration, Mean” value ([2]; IV 5 mg/kg, 5 min) was 2690 ng(ml) and the “Plasma concentration, Group A-D” value ([2]; IV 5 mg/kg, 5 min, 5 mg/kg) was 2780 ng(ml) and 2310 ng(ml) and 2606 ng(ml) and 3063 ng(ml). For the same compound, the “Plasma concentration, Mean” value ([2]; IV 5 mg/kg, 15 min) was 311 ng(ml), the “Plasma concentration, Group A-D” value ([2]; IV 5 mg/kg, 15 min, 5 mg/kg) was 185 ng(ml) and 316 ng(ml) and 521 ng(ml) and 221 ng(ml) and the “Plasma concentration, Mean” value ([2]; IV 5 mg/kg, 30 min) was 154 ng(ml). The “Plasma concentration, Group A-D” value ([2]; IV 5 mg/kg, 30 min, 5 mg/kg) was 109 ng(ml) and 152 ng(ml) and 189 ng(ml) and 164 ng(ml), the “Plasma concentration, Mean” value ([2]; IV 5 mg/kg, 60 min) was 109 ng(ml) and the “Plasma concentration, Group A-D” value ([2]; IV 5 mg/kg, 60 min, 5 mg/kg) was 93 ng(ml) and 160 ng(ml) and 89 ng(ml) and 92 ng(ml). The “Plasma concentration, Mean” value ([2]; IV 5 mg/kg, 120 min) was 60 ng(ml), the “Plasma concentration, Group A-D” value ([2]; IV 5 mg/kg, 120 min, 5 mg/kg) was 69 ng(ml) and 44 ng(ml) and 59 ng(ml) and 67 ng(ml) and the “Plasma concentration, Mean” value ([2]; IV 5 mg/kg, 240 min) was 43 ng(ml). The “Plasma concentration, Group A-D” value ([2]; IV 5 mg/kg, 240 min, 5 mg/kg) was 47 ng(ml) and 43 ng(ml) (2×) and 40 ng(ml), the tolerability in mice ([2]; IV, 5 mg/kg) was “tolerated; also recorded: not toxic at high concentrations” and the Vd ([2]; male, Balb/c, mouse, plasma, 5 mg/kg, calculated, IV, read-out: volume of distribution) was 14.1 L/kg. It also gave a half-life ([2]; male, Balb/c, mouse, plasma, 5 mg/kg, IV 5 mg/kg, read-out: T1/2 (HL_Lambda_z)) of 1.98 h, a half-life ([2]; male, Balb/c, mouse, plasma, 5 mg/kg, mice, IV administration, read-out: half-life in plasma/serum (converted)) of ~2 h and a Cmax [2, 3] of 2690 ng/mL. The Tmax [2, 3] was 5 min, the AUC(0-t) ([2]; male, Balb/c, mouse, plasma, IV 5 mg/kg, read-out: AUC0→t = 240 min (AUClast) (converted)) was 892 ng·h/mL and the AUC(0-inf) ([2]; male, Balb/c, mouse, plasma, IV 5 mg/kg, read-out: AUC0→∞ (AUCINF_obs) (converted)) was 1020 ng·h/mL. The clearance ([2]; male, Balb/c, mouse, plasma, IV 5 mg/kg, read-out: CL (Cl_obs)) was 82.1 mL/min/kg, the MRT inf ([2]; male, Balb/c, mouse, plasma, IV 5 mg/kg, read-out: MRT (MRTinf) (converted)) was 1.36 h and the MRT last ([2]; male, Balb/c, mouse, plasma, IV 5 mg/kg, read-out: MRT (MRTlast) (converted)) was 0.59 h.
